Measured values as given in PMC6934184, “Selective DNA-PKcs inhibition extends the therapeutic index of localized radiotherapy and chemotherapy” (The Journal of Clinical Investigation, 2019).

Biological target: T1, CHEK1 (CHK1) (Homo sapiens, UniProt O14757)
T1 construct: purchased Thermo Fisher Scientific (Life Technologies) SelectScreen
Assay: SelectScreen Z'LYTE
Type: biochemical
In short: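 Compound tested in SelectScreen activity assays, Z'LYTE for CSF1R, CDK1/cyclin B and MAP2K6 and Adapta for CAMK1. ATP for CAMK1 was listed as 10, and Km app was used for CSF1R. Results are expressed in percent.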

T1 sequence (O14757 whole entry): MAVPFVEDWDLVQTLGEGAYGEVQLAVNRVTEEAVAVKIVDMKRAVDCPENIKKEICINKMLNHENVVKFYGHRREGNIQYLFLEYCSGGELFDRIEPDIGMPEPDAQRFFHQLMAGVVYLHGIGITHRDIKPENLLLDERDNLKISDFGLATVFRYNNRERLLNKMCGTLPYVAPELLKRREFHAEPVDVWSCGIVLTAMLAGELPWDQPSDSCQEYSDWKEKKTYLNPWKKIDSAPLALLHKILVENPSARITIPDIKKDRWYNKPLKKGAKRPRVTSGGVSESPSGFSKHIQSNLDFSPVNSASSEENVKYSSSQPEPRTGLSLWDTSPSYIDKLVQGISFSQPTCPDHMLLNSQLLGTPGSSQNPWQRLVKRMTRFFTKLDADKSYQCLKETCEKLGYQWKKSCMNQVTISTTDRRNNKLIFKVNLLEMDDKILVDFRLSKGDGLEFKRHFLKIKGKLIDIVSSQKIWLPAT

## CN(C(=O)CN1CCOCC1)c1ccc2sc3c(-c4cccc5c(=O)cc(N6CC7CCC(C6)O7)oc45)cccc3c2c1 [NU5455]
  inhibition at 1 µM: 9.3%
